Laboratory results from patent US9622474B2, “N-(substituted)-5-fluoro-4-imino-3-methyl-2-oxo-3,4-dihydropyrimidine-1(2H)-carboxylate derivatives” (Adama Makhteshim Ltd., priority 2012, dated 2017).

Experiments:
[1] = system: Mycosphaerella graminicola; Anamorph: Septoria tritici; Bayer Code SEPTTR; assay: Fungicidal activity vs. leaf blotch of wheat (SEPTTR), one-day protectant (1DP); format: in vivo, Septoria tritici on wheat plants (variety Yuma); conditions: rating of % disease control vs untreated, inoculated plants
Experimental: (§1) Example A: Evaluation of Fungicidal Activity: Leaf Blotch of Wheat (Mycosphaerella graminicola; Anamorph: Septoria tritici; Bayer Code SEPTTR):
(§2) Wheat plants (variety Yuma) were grown from seed in a greenhouse in 50% mineral soil/50% soil-less Metro mix until the first leaf was fully emerged, with 7-10 seedlings per pot. These plants were inoculated with an aqueous spore suspension of Septoria tritici either prior to or after fungicide treatments. After inoculation the plants were kept in 100% relative humidity (one day in a dark dew chamber followed by two to three days in a lighted dew chamber) to permit spores to germinate and infect the leaf. The plants were then transferred to a greenhouse for disease to develop.
(§3) The following table presents the activity of typical compounds of the present disclosure when evaluated in these experiments. The effectiveness of the test compounds in controlling disease was determined by assessing the severity of disease on treated plants, then converting the severity to percent control based on the level of disease on untreated, inoculated plants.

[2] = system: Mycosphaerella graminicola; Anamorph: Septoria tritici; Bayer Code SEPTTR; assay: Fungicidal activity vs. leaf blotch of wheat (SEPTTR), three-day curative (3DC); format: in vivo, Septoria tritici on wheat plants (variety Yuma); conditions: rating of % disease control vs untreated, inoculated plants
Experimental: as §1, §2, §3

Row | SMILES | melting point [°C] | SEPTTR 100 PPM 1DP [1] | SEPTTR 100 PPM 3DC [2]
1 | COc1ccc(OC(=O)n2cc(F)c(=N)n(C)c2=O)cc1 [Compound 1, 4-methoxyphenyl 5-fluoro-4-imino-3-methyl-2-oxo-3,4-dihydropyrimidine-1(2H)-carboxylate] | 135.6 to 137.1 | A (76-100) | A (76-100)
2 | COc1ccc(OC(=O)/N=c2/c(F)cn(C(=O)Oc3ccc(OC)cc3)c(=O)n2C)cc1 [Compound 2] | 161.8 to 165.6 | A (76-100) | A (76-100)
3 | Cc1ccc(OC(=O)n2cc(F)c(=N)n(C)c2=O)cc1 [Compound 3] | 109 to 110.2 | A (76-100) | A (76-100)
4 | Cn1c(=N)c(F)cn(C(=O)Oc2ccccc2)c1=O [Compound 4] | 86.4 to 87.6 | A (76-100) | A (76-100)
